Counter-ions that a name gives are not always drawn.
Columns and labels:
Format in all cases: cell-based
NCI-H460 = test: Viability assay with NCI-H460 (CellTiter-Glo cytotoxicity assay, 72 h); details: NCI-H460 cell line, 72 h after compounds addition
Outline: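 NCI-H460 cells, RPMI 1640 + 10% FBS, seeded 1200/well and adhered overnight, then exposed to compounds at 9 points, 2-fold dilution, in triplicate, 0.5% DMSO final. Cellular ATP measured by CellTiter-Glo luminescence 72 h after addition.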

MIA PaCa-2 = test: Viability assay with MIA PaCa-2; details: MIA PaCa-2, viability assay per Example 57
Outline: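 MIA PaCa-2 cells were seeded at 1200/well, allowed to adhere overnight, then treated in triplicate with 9-point 2-fold compound dilutions at 0.5% final DMSO. Viability was measured as cellular ATP by CellTiter-Glo luminescence 72 h after compound addition.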

U2OS = test: Viability assay with U2OS; details: viability assay per Example 57
Procedure: (§1) NCI-H460 (Epithelial lung tissue; carcinoma; large cell lung cancer) were cultured in RPMI Medium 1640 (Invitrogen-22400105) supplemented with 10% fetal bovine serum (FBS; Invitrogen-10099141). All the cell lines were maintained in a humidified incubator at 37° C. with 5% CO2. Cell culture media and supplements were purchased from Invitrogen, and tissue culture flasks were purchased from Corning, 96-well plates were purchased from Greiner. CellTiter-Glo Luminescent Cell Viability Assay kits were purchased from Promega (Promega-G7573), cells counter Vi-Cell was purchased from Beckman, D300e digital dispenser was purchased from Tecan, detection instrument Envision was purchased from PerkinElmer.
(§2) Paclitaxel was purchased from SELLECK, test compounds, such as any one of the compounds disclosed herein, attained solubility in DMSO and when diluted into culture media. DMSO, solutions containing the test compounds, and culture media were warmed to 37° C. or room temperature for the solution preparation and dilutions.
(§3) NCI-H460 Cell line were seeded in 96-well plates (1200/well) and allowed to adhere to overnight (100 uL/well), for drug treatments with 2 fold dilution, 9 dose points, triplicates or vehicle control, compound stock solutions were prepared in DMSO and use D300e digital dispenser to add compounds to the wells to give the indicated final drug concentrations. Final DMSO concentration was 0.5%. Cellular ATP concentrations were assessed by using the CellTiter-Glo Cell Viability Assay as per the manufacturer's instructions 72 h after compounds addition. Additional cells lines were assayed with any one of the compounds disclosed herein according to the procedures described for the viability assay with NCI-H460.
The viability assay with U2OS (epithelial bone tissue; osteosarcoma) was performed with compounds listed in Table 17 according to the procedures described in Example 57.

HT-29 = test: Viability assay with HT-29; details: HT-29, viability assay per Example 57
Outline: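 Cells seeded 1200/well, adhered overnight, then treated with 9-point 2-fold compound dilutions in triplicate (0.5% final DMSO). Viability taken as cellular ATP by CellTiter-Glo luminescence 72 h after compound addition.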

NCI-H2023 = test: Viability assay with NCI-H2023; details: NCI-H2023, viability assay per Example 57
Procedure: as §1, §2, §3
A viability assay with NCI-H2023 (stage 3A, adenocarcinoma; non-small cell lung cancer) was performed with compounds listed in Table 16 according to the procedures described in Example 57.

| EC50 (MIA PaCa-2) | EC50 (U2OS) | EC50 (HT-29) | EC50 (NCI-H2023) | SMILES | EC50 (NCI-H460) |
| --- | --- | --- | --- | --- | --- |
| ≤ 5 µM | ≤ 5 µM | – | – | NCCCn1cc(-c2ccc(OC(F)(F)F)cc2)c2cc(CN3CCN(CC(F)(F)F)CC3)ccc21 [C160; HCl] | ≤ 5 µM |
| ≤ 5 µM | ≤ 5 µM | – | – | COc1ccccc1-c1cn(CCCN)c2ccc(CN3CCN(Cc4c(Cl)cccc4Cl)CC3)cc12 [C2; HCl] | ≤ 5 µM |
| ≤ 5 µM | ≤ 5 µM | – | – | COc1ccc(-c2cn(CCCN)c3ccc(CN4CC5CCC(C4)N5Cc4ccccc4Cl)cc23)cc1 [C158; HCl] | ≤ 5 µM |
| – | ≤ 5 µM | ≤ 5 µM | – | NCCCn1cc(-c2ccccc2CN)c2cc(CN3CCN(Cc4c(Cl)cccc4Cl)CC3)ccc21 [C162; HCl] | – |
| ≤ 5 µM | ≤ 5 µM | – | – | CCc1ccc(-c2cn(CCCN)c3ccc(CN4CC5CCC(C4)N5Cc4ccccc4Cl)cc23)cc1 [C157; HCl] | ≤ 5 µM |
| ≤ 5 µM | ≤ 5 µM | – | – | COc1ccc(F)c(CN2CCN(Cc3ccc4c(c3)c(-c3ccc(OC(F)(F)F)cc3)cn4CCCN)CC2)c1 [C1; HCl] | ≤ 5 µM |
| ≤ 5 µM | ≤ 5 µM | – | – | NCCCn1cc(-c2ccc(OC(F)(F)F)cc2)c2cc(CN3CCC(Cc4ccccc4Cl)CC3)ccc21 [C3; HCl] | ≤ 5 µM |
| ≤ 5 µM | ≤ 5 µM | – | – | NCCCn1cc(-c2ccc(OC(F)(F)F)cc2)c2cc(CC3CCN(Cc4ccccc4Cl)CC3)ccc21 [C159; HCl] | ≤ 5 µM |
| ≤ 5 µM | ≤ 5 µM | ≤ 5 µM | – | NCCCn1cc(-c2cccc(CN)c2)c2cc(CN3CCN(Cc4c(Cl)cccc4Cl)CC3)ccc21 [C168; HCl] | ≤ 5 µM |
| ≤ 5 µM | ≤ 5 µM | – | – | NCCCn1cc(-c2ccc(OC(F)(F)F)cc2)c2cc(CN3CCN(Cc4cccc(OC(F)(F)F)c4)CC3)ccc21 [C163; HCl] | ≤ 5 µM |
| ≤ 5 µM | ≤ 5 µM | – | – | NCCCn1cc(-c2ccc(OC(F)(F)F)cc2)c2cc(CN3CCN(Cc4cccc(Cl)c4Cl)CC3)ccc21 [C164; HCl] | ≤ 5 µM |
| ≤ 5 µM | ≤ 5 µM | – | – | CN(CCN(C)Cc1ccccc1Cl)Cc1ccc2c(c1)c(-c1ccc(OC(F)(F)F)cc1)cn2CCCN [C172; HCl] | ≤ 5 µM |
| ≤ 5 µM | ≤ 5 µM | – | – | COc1cc(CN2CCN(Cc3ccc4c(c3)c(-c3ccc(OC(F)(F)F)cc3)cn4CCCN)CC2)cc(OC)c1 [C11; HCl] | ≤ 5 µM |
| ≤ 5 µM | ≤ 5 µM | – | – | COc1cccc(CN2CCN(Cc3ccc4c(c3)c(-c3ccc(OC(F)(F)F)cc3)cn4CCCN)CC2)c1Cl [C12; HCl] | ≤ 5 µM |
| ≤ 5 µM | ≤ 5 µM | – | – | NCCCn1cc(-c2ccc(OC(F)(F)F)cc2)c2cc(CN3CCN(Cc4cccc(Cl)c4)CC3)ccc21 [C9; HCl] | ≤ 5 µM |
| ≤ 5 µM | ≤ 5 µM | ≤ 5 µM | – | NCCCn1cc(-c2ccc(OC(F)(F)F)cc2)c2cc(CN3CCC4(CCN(Cc5ccccc5Cl)CC4)C3)ccc21 [C169; HCl] | ≤ 5 µM |
| ≤ 5 µM | ≤ 5 µM | – | – | NCCCn1cc(-c2ccc(OC(F)(F)F)cc2)c2cc(CN3CCN(Cc4cc(F)ccc4Cl)CC3)ccc21 [C165; HCl] | ≤ 5 µM |
| ≤ 5 µM | ≤ 5 µM | – | – | N#Cc1cccc(-c2cccc(Cl)c2CN2CCN(Cc3ccc4c(c3)c(-c3cccc(C#N)c3)cn4CCCN)CC2)c1 [C4; HCl] | ≤ 5 µM |

| EC50 (MIA PaCa-2) | EC50 (U2OS) | EC50 (HT-29) | EC50 (NCI-H2023) | SMILES | EC50 (NCI-H460) |
| --- | --- | --- | --- | --- | --- |
| ≤ 5 µM | – | – | ≤ 5 µM | NC1(C(=O)NCCCn2cc(-c3ccc(OC(F)(F)F)cc3)c3cc(CN4C5CCC4CN(Cc4c(Cl)cccc4Cl)C5)ccc32)CCNCC1 [C56; HCl] | ≤ 5 µM |
| ≤ 5 µM | – | – | ≤ 5 µM | N[C@H]1CC[C@H](n2cc(-c3ccc(OC(F)(F)F)cc3)c3cc(CN4CCN(Cc5c(Cl)cccc5Cl)CC4)ccc32)C1 [C42; HCl] | ≤ 5 µM |
| ≤ 5 µM | – | – | ≤ 5 µM | NCCCn1cc(-c2ccc(OC(F)(F)F)cc2)c2cc(CN3CC4CCC(C3)N4Cc3ccccc3Cl)ccc21 [C17; HCl] | ≤ 5 µM |
| ≤ 5 µM | – | – | ≤ 5 µM | NCCCn1cc(-c2ccc(OC(F)(F)F)cc2)c2cc(CN3CCN(C(=O)c4ccccc4Cl)CC3)ccc21 [C15; HCl] | ≤ 5 µM |
| ≤ 5 µM | ≤ 5 µM | – | – | NCCCn1cc(-c2ccc(OC(F)(F)F)cc2)c2cc(CN3CCC4(CC3)CCN(Cc3ccccc3Cl)C4)ccc21 [C5; HCl] | ≤ 5 µM |
| ≤ 5 µM | ≤ 5 µM | – | – | NCCCn1cc(-c2ccccc2Cl)c2cc(CN3CCN(Cc4c(Cl)cccc4Cl)CC3)ccc21 [C167; HCl] | ≤ 5 µM |
| ≤ 5 µM | – | – | ≤ 5 µM | NCCCn1cc(-c2ccc(O)cc2)c2cc(CN3CCN(Cc4c(Cl)cccc4Cl)CC3)ccc21 [C44; HCl] | ≤ 5 µM |
| 10 to 30 µM | – | – | > 30 µM | NC1(C(=O)NCCCn2cc(-c3ccc(O)cc3)c3cc(CN4CCN(Cc5c(Cl)cccc5Cl)CC4)ccc32)CCNCC1 [C36; HCl] | > 30 µM |
| ≤ 5 µM | – | – | ≤ 5 µM | Cc1cccc(C)c1CN1CCN(Cc2ccc3c(c2)c(-c2ccc(OC(F)(F)F)cc2)cn3CCCNC(=O)C2(N)CCNCC2)CC1 [C54; HCl] | ≤ 5 µM |
| ≤ 5 µM | – | – | ≤ 5 µM | CC(C)(N)C(=O)NCCCn1cc(-c2ccc(OC(F)(F)F)cc2)c2cc(CN3CCN(Cc4c(Cl)cccc4Cl)CC3)ccc21 [C46; HCl] | ≤ 5 µM |
| ≤ 5 µM | ≤ 5 µM | – | – | N#Cc1ccccc1-c1cn(CCCN)c2ccc(CN3CCN(Cc4c(Cl)cccc4Cl)CC3)cc12 [C8; HCl] | ≤ 5 µM |
| ≤ 5 µM | ≤ 5 µM | – | – | CN(CCNCc1ccc2c(c1)c(-c1ccc(OC(F)(F)F)cc1)cn2CCCN)Cc1ccccc1Cl [C173; HCl] | ≤ 5 µM |
| > 30 µM | – | – | > 30 µM | CNCc1ccc2c(c1)c(-c1ccc(OC(F)(F)F)cc1)cn2CCCNC(=O)C1(N)CCNCC1 [C16; HCl] | > 30 µM |
| ≤ 5 µM | ≤ 5 µM | – | – | NCCCn1cc(-c2ccc(OC(F)(F)F)cc2)c2cc(CN3CCN(Cc4cccc(C(F)(F)F)c4Cl)CC3)ccc21 [C155; HCl] | ≤ 5 µM |
| ≤ 5 µM | – | – | ≤ 5 µM | N#Cc1ccc(-c2cn(CCCNC(=O)C3(N)CCNCC3)c3ccc(CN4CCN(Cc5c(Cl)cccc5Cl)CC4)cc23)cc1 [C40; HCl] | ≤ 5 µM |
| 10 to 30 µM | – | – | 10 to 30 µM | CC(C)N1CCN(Cc2ccc3c(c2)c(-c2ccc(OC(F)(F)F)cc2)cn3CCCNC(=O)C2(N)CCNCC2)CC1 [C34; HCl] | 10 to 30 µM |
| ≤ 5 µM | – | – | ≤ 5 µM | NCCCn1cc(-c2ccc(N)nc2)c2cc(CN3CCN(Cc4c(Cl)cccc4Cl)CC3)ccc21 [C18; HCl] | ≤ 5 µM |
| 5 to 10 µM | – | – | 5 to 10 µM | COc1cccc(OC)c1CN1CCN(Cc2ccc3c(c2)c(-c2ccc(OC(F)(F)F)cc2)cn3CCCNC(=O)C2(N)CCNCC2)CC1 [C49; HCl] | 5 to 10 µM |

| SMILES | EC50 (MIA PaCa-2) | EC50 (U2OS) | EC50 (HT-29) | EC50 (NCI-H2023) | EC50 (NCI-H460) |
| --- | --- | --- | --- | --- | --- |
| NCCN(CCN)CCCn1cc(-c2ccc(OC(F)(F)F)cc2)c2cc(CN3CCN(Cc4c(Cl)cccc4Cl)CC3)ccc21 [C7; Formic acid] | ≤ 5 µM | ≤ 5 µM | – | – | ≤ 5 µM |
| CC(C)(c1ccccc1Cl)N1CCN(Cc2ccc3c(c2)c(-c2ccc(OC(F)(F)F)cc2)cn3CCCN)CC1 [C166; Formic Acid] | ≤ 5 µM | ≤ 5 µM | ≤ 5 µM | – | ≤ 5 µM |
| NCCCn1cc(-c2ccc(CN)cc2)c2cc(CN3CCN(Cc4c(Cl)cccc4Cl)CC3)ccc21 [C10; Formic acid] | ≤ 5 µM | ≤ 5 µM | – | – | ≤ 5 µM |
| CNCCCn1cc(-c2ccc(OC(F)(F)F)cc2)c2cc(CN3CCN(Cc4c(Cl)cccc4Cl)CC3)ccc21 [C21; Formic acid] | ≤ 5 µM | – | – | ≤ 5 µM | ≤ 5 µM |
| CC(=O)NCCCn1cc(-c2ccc(OC(F)(F)F)cc2)c2cc(CN3CCN(Cc4c(Cl)cccc4Cl)CC3)ccc21 [C47; Formic acid] | ≤ 5 µM | – | – | ≤ 5 µM | ≤ 5 µM |

— US20170158702A1, “MULTIVALENT RAS BINDING COMPOUNDS” (KYRAS THERAPEUTICS, INC., priority 2015, published 2017)
